Measured values: PubChem BioAssay (NCI)
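Cells were grown in 96-well plates and exposed to each compound for 48 hours at five concentrations; endpoints were interpolated linearly between bracketing concentrations, or set to the highest concentration if not reached. The concentration for full growth arrest is given as TGI.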

What was measured:
Assay in all cases: DTP human tumour cell line panel, 48 h
M14 melanoma = system: M14 melanoma
T-47D breast = system: T-47D breast
HCT-15 colon = system: HCT-15 colon
MCF7 breast = system: MCF7 breast
SF-295 CNS = system: SF-295 CNS
NCI/ADR-RES ovarian = system: NCI/ADR-RES ovarian
HCC-2998 colon = system: HCC-2998 colon
SF-268 CNS = system: SF-268 CNS
MDA-N = system: MDA-N
RXF 393 renal = system: RXF 393 renal
UACC-257 melanoma = system: UACC-257 melanoma
EKVX NSCLC = system: EKVX NSCLC
NCI-H460 lung = system: NCI-H460 lung
SR leukemia = system: SR leukemia
SNB-19 CNS = system: SNB-19 CNS
OVCAR-4 ovarian = system: OVCAR-4 ovarian
TK-10 renal = system: TK-10 renal
U251 CNS = system: U251 CNS
A498 renal = system: A498 renal
OVCAR-3 ovarian = system: OVCAR-3 ovarian
SK-OV-3 ovarian = system: SK-OV-3 ovarian
UACC-62 melanoma = system: UACC-62 melanoma
786-0 renal = system: 786-0 renal
MOLT-4 leukemia = system: MOLT-4 leukemia
DU-145 prostate = system: DU-145 prostate
K-562 leukemia = system: K-562 leukemia
OVCAR-5 ovarian = system: OVCAR-5 ovarian
SW-620 colon = system: SW-620 colon
NCI-H23 lung = system: NCI-H23 lung
OVCAR-8 ovarian = system: OVCAR-8 ovarian
COLO 205 colon = system: COLO 205 colon
SK-MEL-2 melanoma = system: SK-MEL-2 melanoma
IGROV1 ovarian = system: IGROV1 ovarian
HCT-116 colon = system: HCT-116 colon
HOP-62 NSCLC = system: HOP-62 NSCLC
SK-MEL-28 melanoma = system: SK-MEL-28 melanoma
CAKI-1 renal = system: CAKI-1 renal
MDA-MB-231 breast = system: MDA-MB-231 breast
HS 578T breast = system: HS 578T breast
SN12C renal = system: SN12C renal
HT29 colon = system: HT29 colon
BT-549 breast = system: BT-549 breast
KM12 colon = system: KM12 colon
CCRF-CEM leukemia = system: CCRF-CEM leukemia
HL-60(TB) leukemia = system: HL-60(TB) leukemia
A549 NSCLC = system: A549 NSCLC
HOP-92 NSCLC = system: HOP-92 NSCLC
RPMI-8226 leukemia = system: RPMI-8226 leukemia
LOX IMVI melanoma = system: LOX IMVI melanoma
MDA-MB-435 = system: MDA-MB-435
SK-MEL-5 melanoma = system: SK-MEL-5 melanoma
UO-31 renal = system: UO-31 renal
SF-539 CNS = system: SF-539 CNS
PC-3 prostate = system: PC-3 prostate
MALME-3M melanoma = system: MALME-3M melanoma
ACHN renal = system: ACHN renal
NCI-H226 lung = system: NCI-H226 lung
NCI-H522 lung = system: NCI-H522 lung

CN1CCN(CC(=O)Nc2cccc3ccccc23)CC1
TGI (M14 melanoma): > 100 µM
TGI (T-47D breast): > 100 µM
TGI (HCT-15 colon): > 100 µM
TGI (MCF7 breast): > 100 µM
TGI (SF-295 CNS): > 100 µM
TGI (NCI/ADR-RES ovarian): > 100 µM
TGI (HCC-2998 colon): > 100 µM
TGI (SF-268 CNS): > 100 µM
TGI (MDA-N): > 100 µM
TGI (RXF 393 renal): > 100 µM
TGI (UACC-257 melanoma): > 100 µM
TGI (EKVX NSCLC): > 100 µM
TGI (NCI-H460 lung): > 100 µM
TGI (SR leukemia): > 100 µM
TGI (SNB-19 CNS): > 100 µM
TGI (OVCAR-4 ovarian): > 100 µM
TGI (TK-10 renal): > 100 µM
TGI (U251 CNS): > 100 µM
TGI (A498 renal): > 100 µM
TGI (OVCAR-3 ovarian): > 100 µM
TGI (SK-OV-3 ovarian): > 100 µM
TGI (UACC-62 melanoma): > 100 µM
TGI (786-0 renal): > 100 µM
TGI (MOLT-4 leukemia): > 100 µM
TGI (DU-145 prostate): > 100 µM
TGI (K-562 leukemia): > 100 µM
TGI (OVCAR-5 ovarian): > 100 µM
TGI (SW-620 colon): > 100 µM
TGI (NCI-H23 lung): > 100 µM
TGI (OVCAR-8 ovarian): > 100 µM
TGI (COLO 205 colon): > 100 µM
TGI (SK-MEL-2 melanoma): > 100 µM
TGI (IGROV1 ovarian): > 100 µM
TGI (HCT-116 colon): > 100 µM
TGI (HOP-62 NSCLC): > 100 µM
TGI (SK-MEL-28 melanoma): > 100 µM
TGI (CAKI-1 renal): > 100 µM
TGI (MDA-MB-231 breast): > 100 µM
TGI (HS 578T breast): > 100 µM
TGI (SN12C renal): > 100 µM
TGI (HT29 colon): > 31.6 µM
TGI (BT-549 breast): > 100 µM
TGI (KM12 colon): > 100 µM
TGI (CCRF-CEM leukemia): > 100 µM
TGI (HL-60(TB) leukemia): > 100 µM
TGI (A549 NSCLC): > 100 µM
TGI (HOP-92 NSCLC): > 100 µM
TGI (RPMI-8226 leukemia): > 100 µM
TGI (LOX IMVI melanoma): > 100 µM
TGI (MDA-MB-435): > 100 µM
TGI (SK-MEL-5 melanoma): > 100 µM
TGI (UO-31 renal): > 100 µM
TGI (SF-539 CNS): > 100 µM
TGI (PC-3 prostate): > 100 µM
TGI (MALME-3M melanoma): > 100 µM
TGI (ACHN renal): > 100 µM
TGI (NCI-H226 lung): > 100 µM
TGI (NCI-H522 lung): > 100 µM

CCCCCCc1nn2c(-c3ccncc3)nnc2s1
TGI (M14 melanoma): > 10 µM
TGI (T-47D breast): > 10 µM
TGI (HCT-15 colon): > 10 µM
TGI (MCF7 breast): > 10 µM
TGI (SF-295 CNS): > 10 µM
TGI (NCI/ADR-RES ovarian): > 10 µM
TGI (HCC-2998 colon): > 10 µM
TGI (SF-268 CNS): > 10 µM
TGI (MDA-N): > 10 µM
TGI (RXF 393 renal): > 10 µM
TGI (UACC-257 melanoma): > 10 µM
TGI (EKVX NSCLC): > 10 µM
TGI (NCI-H460 lung): > 10 µM
TGI (SR leukemia): > 10 µM
TGI (SNB-19 CNS): > 10 µM
TGI (OVCAR-4 ovarian): > 10 µM
TGI (TK-10 renal): > 10 µM
TGI (U251 CNS): > 10 µM
TGI (A498 renal): > 10 µM
TGI (OVCAR-3 ovarian): > 10 µM
TGI (SK-OV-3 ovarian): > 10 µM
TGI (UACC-62 melanoma): > 10 µM
TGI (786-0 renal): > 10 µM
TGI (MOLT-4 leukemia): > 10 µM
TGI (DU-145 prostate): > 10 µM
TGI (K-562 leukemia): > 10 µM
TGI (OVCAR-5 ovarian): > 10 µM
TGI (SW-620 colon): > 10 µM
TGI (NCI-H23 lung): > 10 µM
TGI (OVCAR-8 ovarian): > 10 µM
TGI (COLO 205 colon): > 10 µM
TGI (SK-MEL-2 melanoma): > 10 µM
TGI (IGROV1 ovarian): > 10 µM
TGI (HCT-116 colon): > 10 µM
TGI (HOP-62 NSCLC): > 10 µM
TGI (SK-MEL-28 melanoma): > 10 µM
TGI (CAKI-1 renal): > 10 µM
TGI (MDA-MB-231 breast): > 10 µM
TGI (HS 578T breast): > 10 µM
TGI (SN12C renal): > 10 µM
TGI (HT29 colon): > 10 µM
TGI (BT-549 breast): > 10 µM
TGI (KM12 colon): > 10 µM
TGI (CCRF-CEM leukemia): > 10 µM
TGI (HL-60(TB) leukemia): > 10 µM
TGI (A549 NSCLC): > 10 µM
TGI (HOP-92 NSCLC): > 10 µM
TGI (RPMI-8226 leukemia): > 10 µM
TGI (LOX IMVI melanoma): > 10 µM
TGI (MDA-MB-435): > 10 µM
TGI (SK-MEL-5 melanoma): > 10 µM
TGI (UO-31 renal): 2.89 µM
TGI (SF-539 CNS): > 10 µM
TGI (PC-3 prostate): > 10 µM
TGI (MALME-3M melanoma): > 10 µM
TGI (ACHN renal): > 10 µM
TGI (NCI-H226 lung): > 10 µM
TGI (NCI-H522 lung): > 10 µM

O=C1c2ccc(O)cc2OC(c2cc(O)c(O)c(O)c2)C1O (stereo not drawn)
TGI (M14 melanoma): > 100 µM
TGI (T-47D breast): 85.9 µM
TGI (HCT-15 colon): > 100 µM
TGI (MCF7 breast): 51.9 µM
TGI (SF-295 CNS): 39.9 µM
TGI (NCI/ADR-RES ovarian): 52.9 µM
TGI (HCC-2998 colon): > 100 µM
TGI (SF-268 CNS): > 100 µM
TGI (MDA-N): 34 µM
TGI (RXF 393 renal): > 100 µM
TGI (UACC-257 melanoma): > 100 µM
TGI (EKVX NSCLC): 39.3 µM
TGI (NCI-H460 lung): 39.5 µM
TGI (SR leukemia): 56.5 µM
TGI (SNB-19 CNS): > 100 µM
TGI (OVCAR-4 ovarian): > 100 µM
TGI (TK-10 renal): 69.3 µM
TGI (U251 CNS): 48.7 µM
TGI (A498 renal): 73.5 µM
TGI (OVCAR-3 ovarian): > 100 µM
TGI (SK-OV-3 ovarian): > 100 µM
TGI (UACC-62 melanoma): > 100 µM
TGI (786-0 renal): 45.4 µM
TGI (MOLT-4 leukemia): 51.7 µM
TGI (DU-145 prostate): > 100 µM
TGI (OVCAR-5 ovarian): > 100 µM
TGI (SW-620 colon): 70.3 µM
TGI (NCI-H23 lung): > 100 µM
TGI (OVCAR-8 ovarian): 38.4 µM
TGI (COLO 205 colon): 83.3 µM
TGI (SK-MEL-2 melanoma): > 100 µM
TGI (IGROV1 ovarian): 39.1 µM
TGI (HCT-116 colon): 41 µM
TGI (HOP-62 NSCLC): > 100 µM
TGI (SK-MEL-28 melanoma): > 100 µM
TGI (CAKI-1 renal): > 100 µM
TGI (MDA-MB-231 breast): 39.7 µM
TGI (HS 578T breast): > 100 µM
TGI (SN12C renal): 36.6 µM
TGI (HT29 colon): 43.9 µM
TGI (BT-549 breast): 48 µM
TGI (KM12 colon): 67.1 µM
TGI (CCRF-CEM leukemia): 55.9 µM
TGI (HL-60(TB) leukemia): 48.4 µM
TGI (A549 NSCLC): > 100 µM
TGI (HOP-92 NSCLC): > 100 µM
TGI (RPMI-8226 leukemia): 48.6 µM
TGI (LOX IMVI melanoma): 38.5 µM
TGI (MDA-MB-435): 43.2 µM
TGI (SK-MEL-5 melanoma): > 100 µM
TGI (UO-31 renal): > 100 µM
TGI (SF-539 CNS): 52.7 µM
TGI (PC-3 prostate): > 100 µM
TGI (MALME-3M melanoma): > 100 µM
TGI (ACHN renal): 48.9 µM
TGI (NCI-H226 lung): > 100 µM
TGI (NCI-H522 lung): 58.7 µM
